Results as given in patent EP0429304A2, “Pyridone-carboxylic acid derivatives and their use as veterinary medicines” (SHIONOGI SEIYAKU KABUSHIKI KAISHA trading under the name of …, priority 1989, dated 1991).
Where two headings read alike, the source gives them in different places.

Assays:
[1] = system: Streptococcus sp (Str.sp) SNO6119; test: In vitro sensitivity test; type: cell-based; conditions: 25°C, 40 to 48 hours
[2] = system: Pasteurella piscicida (P.pis) No. 2; test: In vitro sensitivity test; type: cell-based; conditions: 25°C, 40 to 48 hours
Summary of the method: (§1)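 MS (liquid dilution): Frey medium + 12 % pig-serum + 0.01 % βNAD, 37°C, 7 days. S.au (agar dilution): Mueller Hinton agar, 37°C, 20 to 24 hours. P.pis: heart infusion agar + 1.5 % NaCl, 25°C, 40 to 48 hours. All strains animal-origin.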

[3] = system: TS-resistant strain of MG; type: in vivo, chicken; conditions: 10-days chicken, 1.2 x 10³ CFU/fowl; for Infectious index Left air sack + / Infectious index Left air sack ++ / Infectious index Left air sack +++ / Infectious index Left air sack - / Infectious index Right air sack + / Infectious index Right air sack ++ / Infectious index Right air sack +++ / Infectious index Right air sack -: count of fowl
[4] = system: Staphylococcus aureus (S.au) 209P; test: In vitro sensitivity test (agar dilution method); type: cell-based; conditions: 37°C, 20 to 24 hours
Summary of the method: (§2)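 Read-out is visual growth after incubation. Conditions were 37°C for 7 days in Frey medium (12 % pig-serum, 0.01 % βNAD; liquid dilution) for MS, and 37°C for 20 to 24 hours on Mueller Hinton agar for S.au. P.pis used 25°C, 40 to 48 hours, on 1.5 % NaCl heart infusion agar.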

[5] = system: Bordetella bronchiseptica (B.br) ABU-1; test: In vitro sensitivity test (agar dilution method); type: cell-based; conditions: 37°C, 20 to 24 hours
[6] = system: Escherichia coli (E.coli) JC-2; test: In vitro sensitivity test (agar dilution method); type: cell-based; conditions: 37°C, 20 to 24 hours
[7] = system: Salmonella typhimurium (S.typhi) 13311; test: In vitro sensitivity test (agar dilution method); type: cell-based; conditions: 37°C, 20 to 24 hours
[8] = system: Hemophilus paragallinarum (H.pg) 221; test: In vitro sensitivity test (agar dilution method); type: cell-based; conditions: agar dilution, 37°C, 20 hours, 10 % CO₂
[9] = system: Escherichia coli (E.coli) E-17, chicken-origin strain isolated from the field; test: In vitro sensitivity test (agar dilution method); type: cell-based; conditions: 37°C, 20 to 24 hours
Summary of the method: as §2

[10] = system: Hemophilus paragallinarum (H.pg) S-1; test: In vitro sensitivity test (agar dilution method); type: cell-based; conditions: agar dilution, 37°C, 20 hours, 10 % CO₂
[11] = system: Hemophilus pleuropneumonia (H.pp) M-1; test: In vitro sensitivity test (agar dilution method); type: cell-based; conditions: 37°C, 20 hours, 10 % CO₂
[12] = system: TS-resistant MG; test: Experimental MG infection to chicken, through injection; type: in vivo; conditions: 5 fowl tested, 10-days chicken, 3.1 x 10³ CFU/fowl; for Infectious index Left air sack + (number of fowl) / Infectious index Right air sack + (number of fowl): grade + = slight infection; for Infectious index Left air sack ++ (number of fowl) / Infectious index Right air sack ++ (number of fowl): grade ++ = considerable infection; for Infectious index Left air sack +++ (number of fowl) / Infectious index Right air sack +++ (number of fowl): grade +++ = severe infection; for Infectious index Left air sack - (number of fowl) / Infectious index Right air sack - (number of fowl): grade - = no infection
[13] = system: Mycoplasma synoviae (MS) F10-2as; test: In vitro sensitivity test (liquid dilution method); type: cell-based; conditions: 37°C, 7 days
Summary of the method: as §1

[14] = system: Mycoplasma gallisepticum (MG) T-7-T, TS-resistant strain isolated from the field; test: In vitro sensitivity test (liquid dilution method); type: cell-based; conditions: 37°C, 7 days
[15] = system: Mycoplasma synoviae (MS) 1853; test: In vitro sensitivity test (liquid dilution method); type: cell-based; conditions: 37°C, 7 days
Summary of the method: as §1

[16] = system: Mycoplasma hyopneumoniae (Mh) ST-11; test: In vitro sensitivity test (liquid dilution method); type: cell-based; conditions: 37°C, 7 days
[17] = system: Mycoplasma gallisepticum (MG) S6; test: In vitro sensitivity test (liquid dilution method); type: cell-based; conditions: 37°C, 7 days
[18] = system: TS-resistant MG; test: Experimental MG infection to chicken, through bait; type: in vivo
[19] = count of fowl, bait 1100 ppm/Day, 9-days chicken, 1.8 x 10³ CFU/fowl

N[C@H]1CCC[C@H]2CN(c3c(F)cc4c(=O)c(C(=O)O)cn(C5CC5)c4c3F)CC[C@H]21 (relative stereo) [I-6]
In vitro Sensitivity Test Str.sp SNO6119 [1]: 0.39 µg/mL
In vitro Sensitivity Test P.pis No. 2 [2]: 0.78 µg/mL
Infectious index Left air sack + ([3]; oral 3.13 mg/kg): 0
Infectious index Left air sack ++ ([3]; oral 3.13 mg/kg): 0
Infectious index Left air sack +++ ([3]; oral 3.13 mg/kg): 0
Infectious index Left air sack - ([3]; oral 3.13 mg/kg): 5
Infectious index Right air sack + ([3]; oral 3.13 mg/kg): 0
Infectious index Right air sack ++ ([3]; oral 3.13 mg/kg): 0
Infectious index Right air sack +++ ([3]; oral 3.13 mg/kg): 0
Infectious index Right air sack - ([3]; oral 3.13 mg/kg): 5
Infectious index Left air sack + ([3]; oral 6.25 mg/kg): 1
Infectious index Left air sack ++ ([3]; oral 6.25 mg/kg): 0
Infectious index Left air sack +++ ([3]; oral 6.25 mg/kg): 0
Infectious index Left air sack - ([3]; oral 6.25 mg/kg): 4
Infectious index Right air sack + ([3]; oral 6.25 mg/kg): 1
Infectious index Right air sack ++ ([3]; oral 6.25 mg/kg): 4
Infectious index Right air sack +++ ([3]; oral 6.25 mg/kg): 0
Infectious index Right air sack - ([3]; oral 6.25 mg/kg): 0
Infectious index Left air sack + ([3]; oral 12.5 mg/kg): 0
Infectious index Left air sack ++ ([3]; oral 12.5 mg/kg): 0
Infectious index Left air sack +++ ([3]; oral 12.5 mg/kg): 0
Infectious index Left air sack - ([3]; oral 12.5 mg/kg): 5
Infectious index Right air sack + ([3]; oral 12.5 mg/kg): 0
Infectious index Right air sack ++ ([3]; oral 12.5 mg/kg): 4
Infectious index Right air sack +++ ([3]; oral 12.5 mg/kg): 1
Infectious index Right air sack - ([3]; oral 12.5 mg/kg): 0
Number of fowl having air sack lesions ([3]; oral 3.13 mg/kg): 0
Number of fowl having air sack lesions ([3]; oral 6.25 mg/kg): 5
Number of fowl having air sack lesions ([3]; oral 12.5 mg/kg): 5
In vitro Sensitivity Test S.au 209P [4]: ≦0.0125 µg/ml
In vitro Sensitivity Test B.br ABU-1 [5]: 3.13 µg/mL
In vitro Sensitivity Test E.coli JC-2 [6]: 0.1 µg/mL
In vitro Sensitivity Test S.typhi 13311 [7]: 0.2 µg/mL
In vitro Sensitivity Test H.pg 221 [8]: >1.56 µg/mL
In vitro Sensitivity Test E.coli E-17 [9]: 0.2 µg/ml
In vitro Sensitivity Test H.pg S-1 [10]: >1.56 µg/mL
In vitro Sensitivity Test H.pp M-1 [11]: 0.2 µg/mL
Number of fowl having air sack lesions ([12]; Dose 1.56 mg/kg): 0
Infectious index Left air sack + (number of fowl) ([12]; Dose 1.56 mg/kg): 0
Infectious index Right air sack + (number of fowl) ([12]; Dose 1.56 mg/kg): 0
Infectious index Left air sack ++ (number of fowl) ([12]; Dose 1.56 mg/kg): 0
Infectious index Right air sack ++ (number of fowl) ([12]; Dose 1.56 mg/kg): 0
Infectious index Left air sack +++ (number of fowl) ([12]; Dose 1.56 mg/kg): 0
Infectious index Right air sack +++ (number of fowl) ([12]; Dose 1.56 mg/kg): 0
Infectious index Left air sack - (number of fowl) ([12]; Dose 1.56 mg/kg): 5
Infectious index Right air sack - (number of fowl) ([12]; Dose 1.56 mg/kg): 5
Number of fowl having air sack lesions ([12]; Dose 3.13 mg/kg): 0
Infectious index Left air sack + (number of fowl) ([12]; Dose 3.13 mg/kg): 0
Infectious index Right air sack + (number of fowl) ([12]; Dose 3.13 mg/kg): 0
Infectious index Left air sack ++ (number of fowl) ([12]; Dose 3.13 mg/kg): 0
Infectious index Right air sack ++ (number of fowl) ([12]; Dose 3.13 mg/kg): 0
Infectious index Left air sack +++ (number of fowl) ([12]; Dose 3.13 mg/kg): 0
Infectious index Right air sack +++ (number of fowl) ([12]; Dose 3.13 mg/kg): 0
Infectious index Left air sack - (number of fowl) ([12]; Dose 3.13 mg/kg): 5
Infectious index Right air sack - (number of fowl) ([12]; Dose 3.13 mg/kg): 0
In vitro Sensitivity Test MS F10-2as [13]: 0.2 µg/ml
In vitro Sensitivity Test MG T-7-T [14]: 0.00625 µg/mL
In vitro Sensitivity Test MS 1853 [15]: 0.2 µg/mL
In vitro Sensitivity Test Mh ST-11 [16]: <0.025 µg/mL
In vitro Sensitivity Test MG S6 [17]: 0.00625 µg/mL

Tylosin® [TSP, reference compound]
Number of fowl having air sack lesions ([18]; bait 1100 ppm/Day, 9-days chicken, 1.8 x 10³ CFU/fowl): 5
Infectious index Left air sack + [18, 19]: 1
Infectious index Left air sack ++ [18, 19]: 0
Infectious index Left air sack +++ [18, 19]: 0
Infectious index Left air sack - [18, 19]: 4
Infectious index Right air sack + [18, 19]: 3
Infectious index Right air sack ++ [18, 19]: 2
Infectious index Right air sack +++ [18, 19]: 0
Infectious index Right air sack - [18, 19]: 0
inhibition of lesions in air sacs ([18]; through bait, 1100 ppm): could not inhibit lesions in air sacs
In vitro Sensitivity Test S.au 209P [4]: 0.39 µg/mL
In vitro Sensitivity Test E.coli JC-2 [6]: 25.0 µg/mL
In vitro Sensitivity Test S.typhi 13311 [7]: 0.39 µg/mL
In vitro Sensitivity Test H.pp M-1 [11]: 25.0 µg/mL
In vitro Sensitivity Test MS F10-2as [13]: 0.1 µg/ml
In vitro Sensitivity Test MG T-7-T [14]: 6.25 µg/mL
In vitro Sensitivity Test MS 1853 [15]: 0.1 µg/mL
In vitro Sensitivity Test Mh ST-11 [16]: 0.1 µg/mL
In vitro Sensitivity Test MG S6 [17]: 0.05 µg/mL
